Tests used:
[1] = tested on: production of nitric oxide (NO); test: Production of nitric oxide (NO) in cultures of mouse peritoneal cells stimulated with IFN-γ plus LPS (Griess reagent); assay type: cell-based, mice; conditions: substance 50 μmol·l^−1, IFN-g plus LPS, 24 h
How it was run: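 C57BL/6 mouse peritoneal cells (2×10^6/mL) stimulated with IFN-γ (5000 pg/mL) plus LPS (100 pg/mL), compounds at 50 μmol·l^−1. Nitrite measured by Griess reagent after 24 h, expressed as % of stimulated control (set 100%); IC50 is concentration reducing NO by 50%.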

[2] = tested on: production of prostaglandin E2 (PGE2); test: Production of prostaglandin E2 (PGE2) in cultures of mouse peritoneal cells stimulated with LPS (ELISA kit); assay type: cell-based, mice; conditions: for Production of prostaglandins in % of the controls: Table 3A, substance 50 μmol·l^−1, 6 h; for Production of prostaglandins IC50 (μmol · 1^−1) average value and range of values: Table 3B, 6 h
How it was run: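 C57BL/6 mouse peritoneal cells (3×10^6/mL) stimulated with LPS (10 ng/mL). PGE2 measured by ELISA.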

peritoneal cells of mice = test: Cell viability of mouse peritoneal cells (WST-1 kit); assay type: cell-based; conditions: substance 50 μmol·l^−1, 24 h; for Cell viability in % of the controls: Table 3A; for Cell viabilities in % of the controls: Table 3B
How it was run: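 C57BL/6 mouse peritoneal cells (1×10^6/mL) cultured 24 h with compounds at 50 μmol·l^−1. Viability read with WST-1 tetrazolium salt and expressed as percent of untreated control cells (100%).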

| SMILES | Production of prostaglandins IC50 (μmol · 1^−1) average value and range of values [2] | Production of nitric oxide in % of the controls ([1]; Table 3A) | Production of prostaglandins in % of the controls [2] | Cell viability in % of the controls (peritoneal cells of mice) | Production of nitric oxide in % of the controls ([1]; Table 3B) | Cell viabilities in % of the controls (peritoneal cells of mice) |
| --- | --- | --- | --- | --- | --- | --- |
| O=CNc1nc(Cl)c(-c2ccccc2)c(Cl)n1 [Substance 56] | – | 0.80 ± 0.37 % of the controls | 46.40 ± 0.28 % of the controls | 48.49 ± 4.44 % of the controls | – | – |
| CCCCc1c(-c2ccccc2)nc(N)nc1-c1ccccc1 [Substance 67] | 76.75 ± 10.63; n = 4 μmol · 1^−1 | – | – | – | 80.37 ± 1.36; n = 4 % of the controls | 93.60 ± 2.81; n = 4 % of the controls |
| CCCCc1c(-c2ccccc2)nc(N)nc1-c1ccoc1 [Substance 102] | 54.8 ± 10.70; n = 6 μmol · 1^−1 | – | – | – | 68.34 ± 4.63; n = 6 % of the controls | 110.35 ± 5.69; n = 8 % of the controls |
| CCCCc1c(-c2cccnc2)nc(N)nc1-c1ccsc1 [Substance 110] | 64.72 ± 14.00; n = 2 μmol · 1^−1 | – | – | – | 62.00 ± 2.93; n = 4 % of the controls | 90.73 ± 10.89; n = 4 % of the controls |
| C#CCc1c(Cl)nc(N=CN(C)C)nc1Cl [Substance 18] | – | 0.90 ± 0.22 % of the controls | 78.55 ± 0.38 % of the controls | 67.89 ± 7.41 % of the controls | – | – |
| CCCCc1c(-c2ccncc2)nc(N)nc1-c1ccco1 [Substance 98] | 62.49 ± 11.98; n = 4 μmol · 1^−1 | – | – | – | 54.42 ± 2.64; n = 6 % of the controls | 69.84 ± 3.62; n = 8 % of the controls |
| CCCCc1c(-c2ccc(F)cc2)nc(N)nc1-c1cccs1 [Substance 87] | 23.05 ± 11.33; n = 4 μmol · 1^−1 | – | – | – | 48.59 ± 10.92; n = 3 % of the controls | 125.94 ± 4.49; n = 8 % of the controls |
| CCCCc1c(-c2ccccn2)nc(N)nc1-c1cccs1 [Substance 89] | 92.30 ± 9.20; n = 4 μmol · 1^−1 | – | – | – | 19.62 ± 4.08; n = 6 % of the controls | 104.15 ± 10.36; n = 8 % of the controls |
| CCCCc1c(-c2ccc(OC)cc2)nc(N)nc1-c1ccccn1 [Substance 77] | 13.48 ± 1.94; n = 4 μmol · 1^−1 | – | – | – | 58.20 ± 5.42; n = 6 % of the controls | 100.86 ± 11.78; n = 4 % of the controls |
| CCCCc1c(Cl)nc(N)nc1-c1ccc(OC)cc1 [Substance 75] | 4.7 ± 1.17; n = 4 μmol · 1^−1 | – | – | – | 15.96 ± 4.83; n = 4 % of the controls | 86.35 ± 9.29; n = 8 % of the controls |
| CCc1c(Cl)nc(N=CN(C)C)nc1Cl [Substance 14] | – | 23.24 ± 6.78 % of the controls | 30.40 ± 0.80 % of the controls | 162.93 ± 14.68 % of the controls | – | – |
| CCCCc1c(-c2ccsc2)nc(N)nc1-c1ccco1 [Substance 112] | 55.24 ± 7.98; n = 4 μmol · 1^−1 | – | – | – | 47.96 ± 4.90; n = 6 % of the controls | 92.77 ± 7.75; n = 12 % of the controls |
| CCCCc1c(-c2ccccc2)nc(N)nc1-c1ccsc1 [Substance 107] | 68.07 ± 2.56; n = 4 μmol · 1^−1 | – | – | – | 69.69 ± 6.09; n = 4 % of the controls | 69.08 ± 1.78; n = 4 % of the controls |
| CCCCc1c(-c2ccc(OC)cc2)nc(N)nc1-c1ccc(OC)cc1 [Substance 74] | 38.22 ± 5.59; n = 2 μmol · 1^−1 | – | – | – | 86.27 ± 4.16; n = 4 % of the controls | 98.75 ± 5.63; n = 12 % of the controls |

Now from value to molecule, other results behind:

| Production of prostaglandins IC50 (μmol · 1^−1) average value and range of values [2] | SMILES | Production of nitric oxide in % of the controls ([1]; Table 3A) | Production of prostaglandins in % of the controls [2] | Cell viability in % of the controls (peritoneal cells of mice) | Production of nitric oxide in % of the controls ([1]; Table 3B) | Cell viabilities in % of the controls (peritoneal cells of mice) |
| --- | --- | --- | --- | --- | --- | --- |
| 20.76 ± 9.35; n = 4 μmol · 1^−1 | CCCCc1c(Cl)nc(N)nc1-c1cc2ccccc2s1 [Substance 132] | – | – | – | 49.61 ± 6.36; n = 4 % of the controls | 84.08 ± 4.71; n = 8 % of the controls |
| 62.48 ± 5.45; n = 2 μmol · 1^−1 | CCCCc1c(-c2ccsc2)nc(N)nc1-c1cc2ccccc2o1 [Substance 124] | – | – | – | 33.45 ± 13.04; n = 6 % of the controls | 94.41 ± 9.01; n = 8 % of the controls |
| 62.54 ± 21.79; n = 6 μmol · 1^−1 | CCCCc1c(-c2cc3ccccc3o2)nc(N)nc1-c1cccs1 [Substance 121] | – | – | – | 55.17 ± 7.88; n = 10 % of the controls | 90.22 ± 7.99; n = 12 % of the controls |
| 28.00 ± 9.43; n = 2 μmol · 1^−1 | CCCCc1c(-c2ccncc2)nc(N)nc1-c1cccc2ccccc12 [Substance 137] | – | – | – | 58.04 ± 6.68; n = 4 % of the controls | 85.07 ± 1.02; n = 4 % of the controls |
| 80.60 ± 4.63; n = 2 μmol · 1^−1 | CCCCc1c(Cl)nc(NC(C)=O)nc1Cl [Substance 147] | – | – | – | 15.32 ± 2.33; n = 6 % of the controls | 113.28 ± 8.99; n = 8 % of the controls |
| 1.61 ± 0.27; n = 4 μmol · 1^−1 | CCCCc1c(Cl)nc(NN)nc1Cl.Cl [Substance 146] | – | – | – | 86.28 ± 9.01; n = 6 % of the controls | 103.28 ± 4.62; n = 8 % of the controls |
| 43.57 ± 4.53; n = 2 μmol · 1^−1 | CCCCc1c(-c2ccco2)nc(N)nc1-c1cccc2ccccc12 [Substance 138] | – | – | – | 42.92 ± 3.77; n = 4 % of the controls | 93.61 ± 5.46; n = 4 % of the controls |
| 71.89 ± 0.36; n = 2 μmol · 1^−1 | CCCCc1c(-c2cccnc2)nc(N)nc1-c1cc2ccccc2o1 [Substance 119] | – | – | – | 70.13 ± 10.10; n = 6 % of the controls | 76.10 ± 6.23; n = 8 % of the controls |

From US8883798B2, “Pyrimidine compounds inhibiting the formation of nitric oxide and prostaglandin E2, method of production thereof and use thereof” (Ustav Organicke Chemie a Biochemie Akademie Ved CR, V.V.I., priority 2011, dated 2014)
